PubChem BioAssay AID1259407 (Chemical Carcinogenesis Research Information System (CCRIS), 2018)
Calls of active or inactive are those of the source. How the calls were made is not given here.

System: CCRIS mutagenicity, Ames/micronucleus/aberration tests
Test: CCRIS mutagenicity studies

COc1ccc(N)cc1
mutagenic call (Test System: AMES SALMONELLA TYPHIMURIUM, Strain/Indicator: TA1535, Metabolic Activation: RAT, LIVER, S-9, Method: STANDARD PLATE): inactive; negative | mutagenic call (Test System: AMES SALMONELLA TYPHIMURIUM, Strain/Indicator: TA1537, Metabolic Activation: HAMSTER, LIVER, S-9, AROCLOR 1254, Method: STANDARD PLATE): inactive; negative | mutagenic call (Test System: AMES SALMONELLA TYPHIMURIUM, Strain/Indicator: TA1537, Metabolic Activation: HAMSTER, LIVER, S-9, Method: STANDARD PLATE): inactive; negative | mutagenic call (Test System: AMES SALMONELLA TYPHIMURIUM, Strain/Indicator: TA1537, Metabolic Activation: MOUSE, LIVER, S-9, AROCLOR 1254, Method: STANDARD PLATE): inactive; negative | mutagenic call (Test System: AMES SALMONELLA TYPHIMURIUM, Strain/Indicator: TA1537, Metabolic Activation: NONE, Method: PREINCUBATION): inactive; negative | mutagenic call (Test System: AMES SALMONELLA TYPHIMURIUM, Strain/Indicator: TA1537, Metabolic Activation: NONE, Method: STANDARD PLATE): inactive; negative | mutagenic call (Test System: AMES SALMONELLA TYPHIMURIUM, Strain/Indicator: TA1537, Metabolic Activation: RAT LIVER S-9, PHENOBARBITAL AND BETA-NAPHTHOFLAVONE, Method: PREINCUBATION): inactive; negative | mutagenic call (Test System: AMES SALMONELLA TYPHIMURIUM, Strain/Indicator: TA1537, Metabolic Activation: RAT, LIVER, S-9, AROCLOR 1254, Method: STANDARD PLATE): inactive; negative | mutagenic call (Test System: AMES SALMONELLA TYPHIMURIUM, Strain/Indicator: TA1537, Metabolic Activation: RAT, LIVER, S-9, Method: STANDARD PLATE): inactive; negative | mutagenic call (Test System: AMES SALMONELLA TYPHIMURIUM, Strain/Indicator: TA1538, Metabolic Activation: HAMSTER, LIVER, S-9, AROCLOR 1254, Method: STANDARD PLATE): inactive; negative | mutagenic call (Test System: AMES SALMONELLA TYPHIMURIUM, Strain/Indicator: TA1538, Metabolic Activation: HAMSTER, LIVER, S-9, Method: STANDARD PLATE): inactive; negative | mutagenic call (Test System: AMES SALMONELLA TYPHIMURIUM, Strain/Indicator: TA1538, Metabolic Activation: MOUSE, LIVER, S-9, AROCLOR 1254, Method: STANDARD PLATE): inactive; negative | mutagenic call (Test System: AMES SALMONELLA TYPHIMURIUM, Strain/Indicator: TA1538, Metabolic Activation: MOUSE, LIVER, S-9, Method: STANDARD PLATE): inactive; negative | mutagenic call (Test System: AMES SALMONELLA TYPHIMURIUM, Strain/Indicator: TA1538, Metabolic Activation: NONE, Method: STANDARD PLATE): inactive; negative | mutagenic call (Test System: AMES SALMONELLA TYPHIMURIUM, Strain/Indicator: TA1538, Metabolic Activation: RAT, LIVER, S-9, AROCLOR 1254, Method: STANDARD PLATE): inactive; negative | mutagenic call (Test System: AMES SALMONELLA TYPHIMURIUM, Strain/Indicator: TA1538, Metabolic Activation: RAT, LIVER, S-9, Method: STANDARD PLATE): inactive; negative | mutagenic call (Test System: AMES SALMONELLA TYPHIMURIUM, Strain/Indicator: TA2638, Metabolic Activation: NONE, Method: STANDARD PLATE): inactive; negative | mutagenic call (Test System: AMES SALMONELLA TYPHIMURIUM, Strain/Indicator: YG1029, Metabolic Activation: HAMSTER, LIVER, S-9, Method: PREINCUBATION): active; positive | mutagenic call (Test System: AMES SALMONELLA TYPHIMURIUM, Strain/Indicator: YG1029, Metabolic Activation: NONE, Method: PREINCUBATION): active; positive | mutagenic call (Test System: AMES SALMONELLA TYPHIMURIUM, Strain/Indicator: YG1029, Metabolic Activation: RAT, SEMINAL VESICLE, MICROSOMES, Method: PREINCUBATION): active; positive | mutagenic call (Test System: E. COLI, Strain/Indicator: WP2 (PKM101), Metabolic Activation: NONE, Method: STANDARD PLATE): inactive; negative | mutagenic call (Test System: E. COLI, Strain/Indicator: WP2 UVRA (PKM101), Metabolic Activation: NONE, Method: STANDARD PLATE): active; positive | mutagenic call (Test System: E. COLI, Strain/Indicator: WP2 UVRA, Metabolic Activation: HAMSTER, LIVER, S-9, AROCLOR 1254, Method: STANDARD PLATE): inactive; negative | mutagenic call (Test System: E. COLI, Strain/Indicator: WP2 UVRA, Metabolic Activation: HAMSTER, LIVER, S-9, Method: STANDARD PLATE): inactive; negative | mutagenic call (Test System: E. COLI, Strain/Indicator: WP2 UVRA, Metabolic Activation: MOUSE, LIVER, S-9, AROCLOR 1254, Method: STANDARD PLATE): inactive; negative | mutagenic call (Test System: E. COLI, Strain/Indicator: WP2 UVRA, Metabolic Activation: MOUSE, LIVER, S-9, Method: STANDARD PLATE): inactive; negative | mutagenic call (Test System: E. COLI, Strain/Indicator: WP2 UVRA, Metabolic Activation: NONE, Method: STANDARD PLATE): inactive; negative | mutagenic call (Test System: E. COLI, Strain/Indicator: WP2 UVRA, Metabolic Activation: RAT, LIVER, S-9, AROCLOR 1254, Method: STANDARD PLATE): inactive; negative | mutagenic call (Test System: E. COLI, Strain/Indicator: WP2 UVRA, Metabolic Activation: RAT, LIVER, S-9, Method: STANDARD PLATE): inactive; negative | mutagenic call (Test System: E.COLI, Strain/Indicator: WP2UVRA/PKM101, Metabolic Activation: RAT LIVER S-9, PHENOBARBITAL AND BETA-NAPHTHOFLAVONE, Method: PREINCUBATION): inactive; negative | mutagenic call (Test System: E.COLI, Strain/Indicator: WP2UVRA, Metabolic Activation: NONE, Method: PREINCUBATION): inactive; negative | mutagenic call (Test System: MOUSE LYMPHOMA, Strain/Indicator: L5178Y (TK+/TK-), Metabolic Activation: NONE, Method: SUSPENSION/PLATE): active; positive | mutagenic call (Test System: MOUSE LYMPHOMA, Strain/Indicator: L5178Y (TK+/TK-), Metabolic Activation: RAT, LIVER, S-9, AROCLOR 1254, Method: SUSPENSION/PLATE): active; positive
